Data reported in the NIST ThermoML archive (doi:10.1016/j.jct.2019.03.007).

Assay: molar heat capacity at constant pressure
Details: 101.33 kPa, Crystal 1, DSC

O=[N+]([O-])[O-].O=[N+]([O-])[O-].[Ca+2] [calcium nitrate]
Details | molar heat capacity at constant pressure [J/K/mol]
361.78 K | 152.56
362.18 K | 160.28
362.78 K | 152.75
363.18 K | 160.44
363.78 K | 152.95
364.18 K | 160.63
364.78 K | 153.15
365.18 K | 160.81
365.78 K | 153.35
366.18 K | 161.02
366.78 K | 153.54
367.18 K | 161.17
367.78 K | 153.74
368.18 K | 161.33
368.78 K | 153.94
369.18 K | 161.53
369.78 K | 154.14
370.18 K | 161.7
370.78 K | 154.34
371.18 K | 161.95
371.78 K | 154.54
372.18 K | 162.09
372.78 K | 154.75
373.18 K | 162.29
373.78 K | 154.94
374.18 K | 162.35
374.78 K | 155.12
375.18 K | 162.54
375.78 K | 155.3
376.18 K | 162.75
376.78 K | 155.47
377.18 K | 162.97
377.78 K | 155.64
378.18 K | 163.18
378.78 K | 155.81
379.18 K | 163.4
379.78 K | 155.97
380.18 K | 163.62
380.78 K | 156.14
381.18 K | 163.84
381.78 K | 156.31
382.18 K | 164.05
382.78 K | 156.48
383.18 K | 164.32
383.78 K | 156.65
384.18 K | 164.57
384.78 K | 156.82
385.18 K | 164.8
385.78 K | 156.99
386.18 K | 164.98
386.78 K | 157.16
387.18 K | 165.18
387.78 K | 157.33
388.18 K | 165.31
388.78 K | 157.5
389.18 K | 165.47
389.78 K | 157.67
390.18 K | 165.67
390.78 K | 157.83
391.18 K | 165.88
391.78 K | 158
392.18 K | 166.07
392.78 K | 158.17
393.18 K | 166.27
393.78 K | 158.34
394.18 K | 166.46
394.78 K | 158.51
395.18 K | 166.6
395.78 K | 158.68
396.18 K | 166.74
396.78 K | 158.86
397.18 K | 166.86
397.78 K | 159.03
398.18 K | 167.03
398.78 K | 159.2
399.18 K | 167.15
399.78 K | 159.38
400.18 K | 167.33
400.78 K | 159.54
401.18 K | 167.43
401.78 K | 159.71
402.18 K | 167.63
402.78 K | 159.87
403 K | 160.69
403.18 K | 167.77
403.78 K | 160.04
404 K | 160.78
404.18 K | 167.98
404.78 K | 160.23
405 K | 161.04
405.18 K | 168.21
405.78 K | 160.41
406 K | 160.25
406.18 K | 168.41
406.78 K | 160.58
407 K | 160.32
407.18 K | 168.63
407.78 K | 160.76
408 K | 160.3
408.18 K | 168.88
408.78 K | 160.93
409 K | 160.49
409.18 K | 169.09
409.78 K | 161.1
410 K | 161.08
410.18 K | 169.35
410.78 K | 161.27
411 K | 160.76
411.18 K | 169.49
411.78 K | 161.44
412 K | 160.92
412.18 K | 169.72
412.78 K | 161.61
413 K | 161.04
413.18 K | 169.84
413.78 K | 161.77
414 K | 161.26
414.18 K | 170.06
414.78 K | 161.94
415 K | 161.41
415.18 K | 170.21
415.78 K | 162.11
416 K | 161.42
416.18 K | 170.45
416.78 K | 162.27
417 K | 161.52
417.18 K | 170.58
417.78 K | 162.43
418 K | 161.73
418.18 K | 170.76
418.78 K | 162.59
419 K | 162.11
419.18 K | 170.93
419.78 K | 162.75
420 K | 162.15
420.18 K | 171.07
420.78 K | 162.91
421 K | 162.33
421.18 K | 171.17
421.78 K | 163.06
422 K | 162.71
422.18 K | 171.32
422.78 K | 163.22
423 K | 162.96
423.18 K | 171.45
423.78 K | 163.38
424 K | 163.14
424.18 K | 171.55
424.78 K | 163.54
425 K | 163.33
425.18 K | 171.73
425.78 K | 163.69
426 K | 163.37
426.18 K | 171.87
426.78 K | 163.85
427 K | 163.76
427.18 K | 172.05
427.78 K | 164.01
428 K | 163.77
428.18 K | 172.26
428.78 K | 164.17
429 K | 163.7
429.18 K | 172.5
429.78 K | 164.33
430 K | 163.8
430.18 K | 172.74
430.78 K | 164.49
431 K | 163.76
431.18 K | 173.01
431.78 K | 164.65
432 K | 163.92
432.18 K | 173.21
432.78 K | 164.81
433 K | 164.38
433.18 K | 173.43
433.78 K | 164.96
434 K | 164.69
434.18 K | 173.63
434.78 K | 165.13
435 K | 164.65
435.18 K | 173.82
435.78 K | 165.29
436 K | 164.7
436.18 K | 174.04
436.78 K | 165.45
437 K | 164.8
437.18 K | 174.21
437.78 K | 165.61
438 K | 165.07
438.18 K | 174.35
438.78 K | 165.77
439 K | 165.44
439.18 K | 174.62
439.78 K | 165.93
440 K | 165.84
440.18 K | 174.82
440.78 K | 166.09
441 K | 165.74
441.18 K | 175.02
441.78 K | 166.26
442 K | 165.94
442.18 K | 175.16
442.78 K | 166.42
443 K | 166.4
443.18 K | 175.33
443.78 K | 166.58
444 K | 166.4
444.18 K | 175.47
444.78 K | 166.75
445 K | 166.55
445.18 K | 175.65
445.78 K | 166.92
446 K | 166.46
446.18 K | 175.77
446.78 K | 167.08
447 K | 166.39
447.18 K | 175.94
447.78 K | 167.25
448 K | 166.47
448.18 K | 176.08
448.78 K | 167.41
449 K | 166.51
449.18 K | 176.2
449.78 K | 167.57
450 K | 166.69
450.18 K | 176.36
450.78 K | 167.73
451 K | 166.81
451.18 K | 176.52
451.78 K | 167.88
452 K | 166.99
452.18 K | 176.72
452.78 K | 168.04
453 K | 167.12
453.18 K | 176.94
453.78 K | 168.19
454 K | 167.19
454.18 K | 177.19
454.78 K | 168.34
455 K | 167.39
455.18 K | 177.36
455.78 K | 168.49
456 K | 167.61
456.18 K | 177.51
456.78 K | 168.64
457 K | 167.67
457.18 K | 177.68
457.78 K | 168.79
458 K | 167.76
458.18 K | 177.88
458.78 K | 168.94
459 K | 167.66
459.18 K | 178.01
459.78 K | 169.09
460 K | 167.65
460.18 K | 178.19
